Test in all cases: DTP human tumour cell line panel, 48 h
Assay [1] deals with 786-0.
For assay [2], the system named is ACHN.
The subject of assay [3] is CCRF-CEM.
The subject of assay [4] is COLO 205.
Assay [5] deals with EKVX.
For assay [6], the system named is HL-60.
Assay [7] concerns K562.
Assay [8] has as its system MCF7.
Assay [9] relates to MOLT-4.
For assay [10], the system named is Malme-3M.
The subject of assay [11] is OVCAR-4.
Assay [12] relates to RPMI-8226.
Assay [13] deals with SNB-19.
The test system of assay [14] is SNB-75.
Assay [15] concerns SW-620.
Assay [16] concerns KM12.
For assay [17], the system named is NCI-H226.
Assay [18] has as its system NCI-H522.
Assay [19] has as its system SK-MEL-2.
In assay [20] the test system is UACC-62.

Experimental findings from ChEMBL document CHEMBL1201862, “PubChem BioAssay data set” (2004) are described below.

SMILES strings stand for the structures.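 Grown in 96-well plates, cells were treated for 48 hours with each compound at five concentrations. Insufficient inhibition: endpoint recorded as highest concentration tested. GI50 = concentration required for 50% inhibition of growth.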 Active and inactive are the calls of the source. Rule as the data show it: active = GI50 up to about 1.1 µM and inactive = higher.

With `COC(=O)N[C@H](C(=O)NC(OCc1ccccc1)C1COC(C)(C)O1)C(C)O[Si](C)(C)C(C)(C)C` (stereo partly drawn), the GI50 in [1] was > 100 µM (inactive); in [2], > 100 µM (inactive); in assay [3], > 100 µM (inactive); in [4], > 100 µM (inactive); in assay [5], > 100 µM (inactive); in assay [6], 75.7 µM (inactive). The GI50 in assay [7] is > 100 µM (inactive); in assay [8], 27.6 µM (inactive); in assay [9] it was 31.4 µM (inactive); in assay [10], > 100 µM (inactive); in [11], > 100 µM (inactive); in [12], 22.4 µM (inactive). Moreover, the values for the GI50 in [13], in [14] and in [15] were > 100 µM (inactive), 38.4 µM (inactive) and 75.3 µM (inactive), respectively.
As for `ON(Cc1ccccc1)C(=S)c1ccccc1`, the GI50 in [1] is 4.82 µM (inactive); in [2] it was 4.21 µM (inactive); in [3], 0.342 µM (active); in assay [4] it was 1.45 µM (inactive); in assay [5], 7.23 µM (inactive); in assay [6], 0.927 µM (active). The GI50 in assay [7] is 3.27 µM (inactive); in [16], 4.76 µM (inactive); in assay [8] it was 3.28 µM (inactive); in assay [9] it was 1.09 µM (active); in [10] it was 25.4 µM (inactive); in assay [17], 20.1 µM (inactive). Also, the 50% growth inhibitory concentration (GI50) in [18] was 0.482 µM (active); in [11], 2.61 µM (inactive); in assay [12], 2.77 µM (inactive); in [19], 2.62 µM (inactive); in [13], 17.7 µM (inactive); in [14] it was 19 µM (inactive). The GI50 was 4.23 µM (inactive) in [15] and 2.43 µM (inactive) in assay [20].
As to `COc1cc(C2c3cc4c(cc3[C@@H](Nc3cccc(CO)c3)C3COC(=O)[C@H]23)OCO4)cc(OC)c1O` (stereo partly drawn), the GI50 was 0.078 µM (active) in assay [3]; 1.54 µM (inactive) in assay [4]; 3.31 µM (inactive) in assay [5]; < 0.0218 µM (active) in [6]; 0.178 µM (active) in [7]; 1.72 µM (inactive) in assay [16]. In addition, the 50% growth inhibitory concentration (GI50) in assay [8] is 0.22 µM (active); in assay [9], 0.0448 µM (active); in [10], 1.56 µM (inactive); in assay [17] it was 0.308 µM (active); in [18] it was 1 µM (active); in [11], 6.84 µM (inactive). The concentration for 50% growth inhibition (GI50) is 0.244 µM (active) in assay [12]; 2.74 µM (inactive) in [19]; 0.453 µM (active) in [13]; 0.94 µM (active) in assay [14]; 1.41 µM (inactive) in assay [15]; 0.307 µM (active) in [20].
Take `NCC(Cl)C(O)c1c[nH]c(N)n1` (stereo not drawn): the GI50 is 1.58 µM (inactive) in assay [3]; 0.306 µM (active) in [4]; 0.502 µM (active) in assay [5]; 3.46 µM (inactive) in [6]; 2.38 µM (inactive) in [7]; 0.117 µM (active) in assay [16]. In addition, the GI50 is 2.77 µM (inactive) in [8]; 0.53 µM (active) in assay [9]; 1.43 µM (inactive) in assay [10]; 2.15 µM (inactive) in [17]; 1.93 µM (inactive) in assay [18]; 0.668 µM (active) in assay [11]. The concentration for 50% growth inhibition (GI50) in [12] is 0.237 µM (active); in assay [19] it was 3.56 µM (inactive); in assay [13], 1.16 µM (inactive); in [14] it was 1.84 µM (inactive); in assay [15] it was 0.37 µM (active); in assay [20], 3.01 µM (inactive).
Regarding `CCCCCCCc1cscc1-c1cscc1Br`, the GI50 in assay [1] was 57 µM (inactive); in assay [2], 33.5 µM (inactive); in assay [3], 18.2 µM (inactive); in assay [4] it was 18 µM (inactive); in assay [5], 56.1 µM (inactive); in [7], 53.1 µM (inactive). In addition, the GI50 is 27.2 µM (inactive) in assay [16]; 34.8 µM (inactive) in assay [8]; 20.2 µM (inactive) in assay [9]; 42.1 µM (inactive) in [10]; 65.2 µM (inactive) in assay [17]; 21.4 µM (inactive) in assay [18]. In addition, the GI50 is 33.7 µM (inactive) in [11]; 18.5 µM (inactive) in assay [12]; 16.6 µM (inactive) in assay [19]; 70.1 µM (inactive) in assay [13]; 25.8 µM (inactive) in assay [14]; 42.8 µM (inactive) in assay [15]. In addition, the GI50 in assay [20] is 70 µM (inactive).
`O=c1cc(O)c1=O`: the GI50 in assay [2], in assay [3], in assay [4], in [5], in assay [6] and in assay [7] was > 100 µM (inactive) throughout. The GI50 in assay [16], in assay [8], in assay [9], in assay [10], in assay [17] and in assay [18] was > 100 µM (inactive) each time. The GI50 in assay [11], in assay [12], in assay [19], in assay [13], in assay [14] and in assay [15] was > 100 µM (inactive) in each case. The GI50 in assay [20] was > 100 µM (inactive).
For the compound `Cn1c(=O)c(Cl)c(N=[N+]=[N-])c2ccccc21`, the GI50 in assay [2] was 85.7 µM (inactive); in [3], 55.7 µM (inactive); in [4], > 100 µM (inactive); in assay [5], 22.1 µM (inactive); in assay [7], 47.1 µM (inactive); in [16], 0.0324 µM (active). Further, the GI50 was 67.3 µM (inactive) in assay [8]; 23.3 µM (inactive) in assay [9]; 68.9 µM (inactive) in [10]; 39.8 µM (inactive) in assay [17]; 74.3 µM (inactive) in assay [18]; 55.7 µM (inactive) in assay [11]. For the same compound, the GI50 was > 100 µM (inactive) in assay [19]; > 100 µM (inactive) in [13]; 25.8 µM (inactive) in assay [14]; > 100 µM (inactive) in assay [15]; 68.1 µM (inactive) in [20].
For `COc1nc(N=P(c2ccccc2)(c2ccccc2)c2ccccc2)cc(=O)n1C`, the GI50 in assay [1], in [2], in assay [3], in [4], in assay [5] and in assay [6] was > 100 µM (inactive) throughout. In addition, the GI50 in assay [7], in assay [16], in assay [8], in [9], in assay [17] and in assay [18] was > 100 µM (inactive) each time. Further, the GI50 is > 100 µM (inactive) in assay [11]; > 100 µM (inactive) in assay [12]; > 100 µM (inactive) in [19]; > 100 µM (inactive) in [13]; 54.8 µM (inactive) in assay [14]; > 100 µM (inactive) in assay [15]. In addition, the GI50 in assay [20] was > 100 µM (inactive).
With `CC(C)C(=O)Cc1ccc2ccccc2n1`, the GI50 in assay [1] is > 100 µM (inactive); in [2] it was > 100 µM (inactive); in [3] it was > 100 µM (inactive); in assay [4], > 100 µM (inactive); in assay [5], 83.4 µM (inactive); in assay [6], > 100 µM (inactive). In addition, the GI50 was > 100 µM (inactive) in assay [16]; > 100 µM (inactive) in assay [8]; > 100 µM (inactive) in assay [10]; > 100 µM (inactive) in [17]; 50.5 µM (inactive) in assay [18]; > 100 µM (inactive) in assay [11]. Also, the concentration for 50% growth inhibition (GI50) in [12] was 0.097 µM (active); in [19] it was > 100 µM (inactive); in assay [13], > 100 µM (inactive); in assay [14] it was > 100 µM (inactive); in [15], > 100 µM (inactive); in assay [20], > 100 µM (inactive).
For `COc1cccc(C2c3cc4c(cc3OC(N3CCOCC3)C2C)OCO4)c1` (stereo not drawn), the GI50 in assay [2] was 14.7 µM (inactive); in assay [4], 11.3 µM (inactive); in [5], 26.7 µM (inactive); in [7], 3.1 µM (inactive); in assay [8], 6.61 µM (inactive); in assay [9], 2.7 µM (inactive). Moreover, the GI50 was 10.5 µM (inactive) in assay [10]; 15.6 µM (inactive) in assay [17]; 8.24 µM (inactive) in [18]; 14.7 µM (inactive) in assay [11]; > 100 µM (inactive) in assay [12]; 12.2 µM (inactive) in assay [19]. Moreover, the GI50 is 20.5 µM (inactive) in assay [13], 28.3 µM (inactive) in [14], 3.19 µM (inactive) in assay [15] and 8.47 µM (inactive) in assay [20].
Take `COc1cc2c(cc1OC)C1(COc3cc(O)c(O)c(O)c3C1=O)C2` (stereo not drawn): the GI50 in assay [1], in [2], in assay [3], in [4], in assay [6] and in assay [7] was > 50 µM (inactive) each time. The GI50 in assay [16] was > 50 µM (inactive); in assay [8], 0.005 µM (active); in assay [9] it was > 50 µM (inactive); in [10], > 50 µM (inactive); in assay [17], > 50 µM (inactive); in assay [18], > 50 µM (inactive). Moreover, the GI50 is > 50 µM (inactive) in assay [11]; > 50 µM (inactive) in assay [12]; > 50 µM (inactive) in assay [19]; > 50 µM (inactive) in assay [13]; 8.65 µM (inactive) in [14]; > 50 µM (inactive) in assay [15]. Further, the GI50 in assay [20] is > 50 µM (inactive).

The GI50 is the concentration giving 50% growth inhibition.
